Test results taken from patent publication US11925624B2, “Methods of administering anti-fibrotic therapy” (GENENTECH, INC., priority 2016, dated 2024).
Where two headings read alike, the source gives them in different places.

Test: Phase 1 Part A proton pump inhibitor (rabeprazole) effect on single-dose pharmacokinetics
Assay type: in vivo, human
Details: for AUC0-t (norm) / AUC0-∞ (norm) / CL/F / CL/F(norm) / Cmax (norm) / λZ / % AUCextrap / AUC(0-inf) / AUC(0-t) / Cmax / half-life / Tmax / Vd/F: +20 mg Rabeprazole QD x 3; for % AUCextrap: arithmetic mean; for AUC(0-inf) / AUC(0-t) / Cmax / half-life / Tmax / Vd/F: human, plasma, oral; for Tmax: median
Excerpt: This study was a randomized, blinded, placebo-controlled, ascending-dose study to evaluate the safety, tolerability, and pharmacokinetic (PK) of single (Part A) and multiple (Part B) doses of Compound I in healthy subjects. In addition, the effects of a standard high-fat breakfast, standard low-fat breakfast, and pretreatment and co-administration of a proton pump inhibitor (PPI) on the tolerability and PK of a single dose of Compound I were investigated in 2 groups in Part A. All subjects received their full dose of Compound I, administered as the appropriate number of either 25 or 200 mg tablets. The high fat breakfast comprised the following: total energy: 895 kcal; total fat: 61 g; total protein: 41 g; total carbohydrate: 46 g. The low fat breakfast comprised the following: total energy: 611 kcal; total fat: 14.7 g; total protein: 20.3 g; total carbohydrate: 106.3 g.
For Group A4, doses (400 mg Compound I or placebo) during Treatment Period 1 were administered in a fasted state on the morning of Day 1. Doses in Treatment Period 2 were administered 30 minutes after starting, and within approximately 10 minutes of completing, a high-fat standard breakfast on the morning of Day 1. Doses during Treatment Period 3 were administered 30 minutes after starting, and within approximately 10 minutes of completing a low-fat standard meal on the morning of Day 1. Doses during Treatment Period 4 were administered on Day 1 after an overnight fast and following administration of a PPI (rabeprazole 20 mg) for 3 days (given as 3 daily [QD] doses, with the final PPI dose at 2 hours prior to study drug administration on Day 1). Subjects in Group A4 received the same Compound I or placebo treatment in all treatment periods, such that each subject received up to 4 single doses of Compound I or placebo.
For Group A5, doses (800 mg Compound I or placebo) during Treatment Period 1 were administered in a fasted state on the morning of Day 1, doses during Treatment Period 2 were administered 30 minutes after starting a low-fat standard breakfast on the morning of Day 1, and doses during Treatment Period 3 were administered on Day 1 after a low-fat meal and following administration of a PPI (rabeprazole 20 mg) for 3 days (given as 3 QD doses, with the final PPI dose at 2 hours prior to study drug administration on Day 1). Subjects in Group A5 received the same Compound I or placebo treatment in all treatment periods, such that each subject received up to 3 single doses of Compound I or placebo.
In Part A, all doses in Treatment Period 1 were administered after an overnight fast of at least 8 hours. For the A4 cohort, in Treatment Periods 2 and 3, doses were administered 30 minutes after starting and approximately 10 minutes after completing a high- or low-fat breakfast. In Treatment Period 4, the dose was administered after an overnight fast and following administration of a PPI (PPI was comprised of 3 doses of rabeprazole 20 mg, starting on Day −2 and with the final dose 2 hours before Compound I administration on Day 1). For Group A5, doses during Treatment Period 2 were administered 30 minutes after starting and approximately 10 minutes after completing a low-fat standard breakfast on the morning of Day 1, and doses during Treatment Period 3 were administered on Day 1 after a low-fat meal and following administration of a PPI for 3 days (given as 3 QD doses, with the final PPI dose at 2 hours prior to study drug administration on Day 1).

[1] = 400 mg Fasted + 20 mg Rabeprazole QD x 3 (Test) vs 400 mg Fasted (Reference)
[2] = 400 mg single dose (A4), Fasted
[3] = 800 mg Fed, Low-fat + 20 mg Rabeprazole QD x 3 (Test) vs 800 mg Fed, Low-fat (Reference)
[4] = 800 mg single dose (A5), Fed, Low-fat
[5] = pretreatment and co-administration of 20 mg rabeprazole (QD×3), low-fat fed state, compared to Compound I alone

Cn1cc(-c2cn(-c3ccc(OC(F)(F)F)cc3)c(=O)c3ncn(C)c23)cn1 [Compound I]
Test/Reference ratio of LS means, AUC0-t [1]: 86.4% | Test/Reference ratio of LS means, AUC0-∞ [1]: 87.2% | Test/Reference ratio of LS means, Cmax [1]: 83.6% | AUC0-t (norm) [2]: 8130 (hr*ng/mL)/(mg/kg) | AUC0-∞ (norm) [2]: 8410 (hr*ng/mL)/(mg/kg) | CL/F [2]: 139 mL/min | CL/F(norm) [2]: 1.98 (mL/min)/kg | Cmax (norm) [2]: 660 ng/mL/mg/kg | λZ [2]: 0.0603 h⁻¹ | % AUCextrap [2]: 3.25% | Test/Reference ratio of LS means, AUC0-t [3]: 76.5% | Test/Reference ratio of LS means, AUC0-∞ [3]: 77.2% | Test/Reference ratio of LS means, Cmax [3]: 75.0% | AUC0-t (norm) [4]: 11000 (hr*ng/mL)/(mg/kg) | AUC0-∞ (norm) [4]: 11100 (hr*ng/mL)/(mg/kg) | CL/F [4]: 108 mL/min | CL/F(norm) [4]: 1.50 (mL/min)/kg | Cmax (norm) [4]: 900 ng/mL/mg/kg | λZ [4]: 0.0666 h⁻¹ | % AUCextrap [4]: 1.27% | AUC(0-inf) [2]: 48100 ng·h/mL | AUC(0-t) [2]: 46500 ng·h/mL | Cmax [2]: 3770 ng/mL | half-life [2]: 10.5 h | Tmax [2]: 2.5 h | Vd/F (400 mg single dose (A4), Fasted, read-out: Vz/F): 138 L | Vd/F (400 mg single dose (A4), Fasted, read-out: Vz/F(norm)): 1.97 L/kg | AUC(0-inf) [4]: 124000 ng·h/mL | AUC(0-t) [4]: 122000 ng·h/mL | Cmax [4]: 10000 ng/mL | half-life [4]: 8.92 h | Tmax [4]: 3 h | Vd/F (800 mg single dose (A5), Fed, Low-fat, read-out: Vz/F): 97.2 L | Vd/F (800 mg single dose (A5), Fed, Low-fat, read-out: Vz/F(norm)): 1.35 L/kg | Decrease in AUC0-t [5]: 23.5% | Decrease in AUC0-∞ [5]: 22.8% | Decrease in Cmax [5]: 25.0%
